Assay results as given in patent US4261989A, “Geldanamycin derivatives and antitumor drug” (Kaken Chemical Co. Ltd., priority 1979, dated 1981).

tested on: cancer cell W-2K-11; assay: Growth inhibition of cancer cell W-2K-11 (percent inhibition of cell multiplication, Table 2); type: cell-based, mouse; settings: Mus musculus, 48 h, read-out: Percent inhibition (%)
Experimental: Cancer cell W-2K-11 was obtained by transforming fibroblast C3H-2K clone derived from kidney of mouse by cancerogenic virus. The cancer cell W-2K-11 was cultured by the following method.
(1) Preparation of culture medium
9.4 Gram of Eagle's MEM culture media (manufactured by Nissui Seiyaku K. K.) was dissolved in 900 ml. of distilled water and the solution was sterilized under high pressure at 120° C. for 15 minutes and cooled. 100 Ml. of calf serum and 3-5 ml. of 10% aqueous solution of sodium bicarbonate were added to the solution to adjust pH to 7.1-7.2. 10 Ml. of an aqueous solution of L-glutamine (2.92 g./100 ml.) filtered by a millipore filter was added just before the use of the solution as culture medium.
(2) Preparation of transplanted cell solution
The cancer cell W-2K-11 stored in a freezer at -80° C. was melted at room temperature and treated by a centrifugal separator at 670 g. for 5 minutes. The precipitated cell was dispersed in 50 ml. of the culture medium (1). The suspension was charged into Roux flask and cultured at 37° C. The multiplication of the cells was initiated and accomplished after 3 to 4 days. The cultured mixture was decanted and 10 ml. of 0.2% trypsin solution was added and the mixture was kept at room temperature for 2 to 3 minutes and the trypsin mixture was decanted and then, 50 ml. of the culture medium (1) was added to prepare a suspension of cells.
(3) Incubation of cells and addition of sample
1.8 Ml. of the suspension of cells (2) was charged into each Petri dish and incubated in a carbon dioxide gas incubator (5% of CO2; 95% of air) at 37° C. Twenty four hours after the initiation of the incubation, 0.2 ml. of each ethanol solution of each sample was added, and the incubation was continued. Forty eight hours after the addition of the sample, numbers of survival cells were counted under a microscopic observation and each percent inhibition of cell multiplication was calculated. [formula]

Row | Compound | inhibition at 1 µg/mL | inhibition at 5 µg/mL | inhibition at 10 µg/mL
1 | COC1/C=C\C=C(/C)C(=O)NC2=CC(=O)C(NCC(C)C)=C(CC(C)CC(OC)C(O)C(C)/C=C(\C)C1OC(N)=O)C2=O (centres unmarked) [Example 12] | 90% | – | –
2 | COC1=C2CC(C)CC(OC)C(O)C(C)C=C(C)C(OC(N)=O)C(OC)C=CC=C(C)C(=O)NC(=C(I)C1=O)C2=O (centres unmarked) [Example 38, 19-iodo-Geldanamycin] | – | 95% | –
3 | COC1C=CC=C(C)C(=O)NC2=CC(=O)C(NCc3ccncc3)=C(CC(C)CC(OC)C(O)C(C)C=C(C)C1OC(N)=O)C2=O (centres unmarked) [Example 30] | – | 95% | –
4 | CCCCCCCCCCNC1=C2CC(C)CC(OC)C(O)C(C)/C=C(\C)C(OC(N)=O)C(OC)/C=C\C=C(/C)C(=O)NC(=CC1=O)C2=O (centres unmarked) [Example 10] | – | – | 48%
5 | CCCCCNC1=C2CC(C)CC(OC)C(O)C(C)/C=C(\C)C(OC(N)=O)C(OC)/C=C\C=C(/C)C(=O)NC(=CC1=O)C2=O (centres unmarked) [Example 6] | 90% | – | –
6 | COC1/C=C\C=C(/C)C(=O)NC2=CC(=O)C(N3CC3)=C(CC(C)CC(OC)C(O)C(C)/C=C(\C)C1OC(N)=O)C2=O (centres unmarked) [Example 2, 17-ethyleneimino-Geldenamycin] | 97% | – | –
7 | COC1/C=C\C=C(/C)C(=O)NC2=CC(=O)C(NCCCl)=C(CC(C)CC(OC)C(O)C(C)/C=C(\C)C1OC(N)=O)C2=O (centres unmarked) [Example 20] | 98% | – | –
8 | COC1C=CC=C(C)C(=O)NC2=CC(=O)C(NCCc3ccccn3)=C(CC(C)CC(OC)C(O)C(C)C=C(C)C1OC(N)=O)C2=O (centres unmarked) [Example 31] | – | 93% | –
9 | CNC(=O)OC1C(C)=CC(C)C(O)C(OC)CC(C)CC2=C(OC)C(=O)C=C(N=C(OC)C(C)=CC=CC1OC)C2=O (centres unmarked) [Example 44, 1-O-methyl-7-OCONH-methyl-Geldanamycin] | 94% | – | 80%

same assay, conditions: Mus musculus; concentration 0.5 μg/ml; 48 hours after addition of sample; W-2K-11 cells

Row | Compound | inhibition at 0.5 µg/mL
10 | COCCNC1=C2CC(C)CC(OC)C(O)C(C)C=C(C)C(OC(N)=O)C(OC)C=CC=C(C)C(=O)NC(=CC1=O)C2=O (centres unmarked) [Example 33] | 95%

same assay, conditions: Mus musculus; concentration 1 μg/ml; 48 hours after addition of sample; W-2K-11 cells; read-out: Percent inhibition (%)

Row | Compound | inhibition at 1 µg/mL
11 | C=CCNC1=C2CC(C)CC(OC)C(O)C(C)/C=C(\C)C(OC(N)=O)C(OC)/C=C\C=C(/C)C(=O)NC(=CC1=O)C2=O (centres unmarked) [Example 22] | 93%
12 | COC1/C=C\C=C(/C)C(=O)NC2=CC(=O)C(NC3CCCCC3)=C(CC(C)CC(OC)C(O)C(C)/C=C(\C)C1OC(N)=O)C2=O (centres unmarked) [Example 15] | 98%
13 | COC1=C2CC(C)CC(OC)C(O)C(C)C=C(C)C(OC(N)=O)C(OC)C=CC=C(C)C(=O)NC(=C(N(C)C)C1=O)C2=O (centres unmarked) [Example 36, 19-dimethylamino-Geldanamycin] | 70%
14 | COC1C=CC=C(C)C(=O)NC2=CC(=O)C(NCCc3ccccc3)=C(CC(C)CC(OC)C(O)C(C)C=C(C)C1OC(N)=O)C2=O (centres unmarked) [Example 24] | 82%
15 | COC1/C=C\C=C(/C)C(=O)NC2=CC(=O)C(NC3CCCC3)=C(CC(C)CC(OC)C(O)C(C)/C=C(\C)C1OC(N)=O)C2=O (centres unmarked) [Example 14] | 98%
16 | COC1/C=C\C=C(/C)C(=O)NC2=CC(=O)C(NCCO)=C(CC(C)CC(OC)C(O)C(C)/C=C(\C)C1OC(N)=O)C2=O (centres unmarked) [Example 18] | 98%
17 | CNC(=O)OC1C(C)=CC(C)C(O)C(OC)CC(C)CC2=C(OC)C(=O)C=C(C2=O)N(C)C(=O)C(C)=CC=CC1OC (centres unmarked) [Example 42, 21-N-methyl-7-OCONH-methyl-Geldanamycin] | 82%
18 | CCCNC1=C2CC(C)CC(OC)C(O)C(C)/C=C(\C)C(OC(N)=O)C(OC)/C=C\C=C(/C)C(=O)NC(=CC1=O)C2=O (centres unmarked) [Example 1, 17-n-propylamino-Geldanamycin] | 92%
19 | CCCCCCCNC1=C2CC(C)CC(OC)C(O)C(C)/C=C(\C)C(OC(N)=O)C(OC)/C=C\C=C(/C)C(=O)NC(=CC1=O)C2=O (centres unmarked) [Example 8] | 96%
20 | CCCCCCNC1=C2CC(C)CC(OC)C(O)C(C)/C=C(\C)C(OC(N)=O)C(OC)/C=C\C=C(/C)C(=O)NC(=CC1=O)C2=O (centres unmarked) [Example 7] | 90%
21 | COC1/C=C\C=C(/C)C(=O)NC2=CC(=O)C(NC3CC3)=C(CC(C)CC(OC)C(O)C(C)/C=C(\C)C1OC(N)=O)C2=O (centres unmarked) [Example 13] | 94%

same assay, conditions: Mus musculus; concentration 10 μg/ml; 48 hours after addition of sample; W-2K-11 cells; read-out: Percent inhibition (%)

Row | Compound | inhibition at 10 µg/mL
22 | COC1=C2CC(C)CC(OC)C(O)C(C)C=C(C)C(OC(N)=O)C(OC)C=CC=C(C)C(=O)NC(=C(N(C)C)C1=O)C2=O (centres unmarked) [Example 36, 19-dimethylamino-Geldanamycin] | 84%
23 | COC1/C=C\C=C(/C)C(=O)NC2=CC(=O)C(NC3CCCC3)=C(CC(C)CC(OC)C(O)C(C)/C=C(\C)C1OC(N)=O)C2=O (centres unmarked) [Example 14] | 97%
24 | CNC(=O)OC1C(C)=CC(C)C(O)C(OC)CC(C)CC2=C(OC)C(=O)C=C(C2=O)N(C)C(=O)C(C)=CC=CC1OC (centres unmarked) [Example 42, 21-N-methyl-7-OCONH-methyl-Geldanamycin] | 94%

tested on: not listed separately; assay: Acute toxicity, LD50 to mouse by intraperitoneal injection (Table 3); settings: in vivo, ip
Experimental: LD50 of each sample to mouse was measured by intraperitoneal injection of each sample.

Row | Compound | LD50
25 | COC1=C2CC(C)CC(OC)C(O)C(C)C=C(C)C(OC(N)=O)C(OC)C=CC=C(C)C(=O)NC(=C(N(C)C)C1=O)C2=O (centres unmarked) [Example 36, 19-dimethylamino-Geldanamycin] | > 240 mg/kg
